Laboratory results from US12054483B2, “Small molecule inhibitors of DYRK/CLK and uses thereof” (Arizona Board of Regents on Behalf of the University of …, priority 2018, dated 2024).

Biological target: DYRK1A (Homo sapiens, UniProt Q13627)
Assay: Affinity testing of compounds with DYRK1A (KD)
Assay type: binding
Details: DYRK1A affinity key classes

Kd [nM] | SMILES
0.5 to 100 | COC(=O)c1ccc(-c2cnc3ccc(-c4ccncc4)nn23)cc1 [Compound 72, methyl 4-(6-(pyridin-4-yl)imidazo[1,2-b]pyridazin-3-yl)benzoate]
0.5 to 100 | Cc1nc2ccc(-c3ccncc3)nc2n1-c1ccc2c(c1)OCC(=O)N2 [Compound 37, 7-(2-methyl-5-(pyridin-4-yl)-3H-imidazo[4,5-b]pyridin-3-yl)-2H-benzo[b][1,4]oxazin-3(4H)-one]
101 to 500 | Cc1cc(-c2ccc3ncc(-c4ccc(CN5CCCCC5)cc4)n3n2)ccn1 [Compound 92, 6-(2-methylpyridin-4-yl)-3-(4-(piperidin-1-ylmethyl)phenyl)imidazo[1,2-b]pyridazine]
0.5 to 100 | c1cc(-c2ccc3ncc(-c4ccc(N5CCOCC5)nc4)n3n2)ccn1 [Compound 73, 4-(5-(6-(pyridin-4-yl)imidazo[1,2-b]pyridazin-3-yl)pyridin-2-yl)morpholine]
0.5 to 100 | Cc1nc2ccc(-c3ccncc3)nc2n1-c1ccc(Cl)cn1 [Compound 141, 3-(5-chloropyridin-2-yl)-2-methyl-5-(pyridin-4-yl)-3H-imidazo[4,5-b]pyridine]
0.5 to 100 | Cc1nc2ccc(-c3cn[nH]c3)nc2n1-c1ccc2[nH]cnc2c1 [Compound 33, 3-(1H-benzo[d]imidazol-5-yl)-2-methyl-5-(1H-pyrazol-4-yl)-3H-imidazo[4,5-b]pyridine]
0.5 to 100 | c1cc(-c2ccc3ncc(-c4ccc(N5CCN(C6COC6)CC5)nc4)n3n2)ccn1 [Compound 83, 3-(6-(4-(oxetan-3-yl)piperazin-1-yl)pyridin-3-yl)-6-(pyridin-4-yl)imidazo[1,2-b]pyridazine]
501 to 10000 | N#Cc1cnccc1-c1ccc2ncc(-c3ccc(CN4CCOCC4)cc3)n2n1 [Compound 106, 4-(3-(4-(morpholinomethyl)phenyl)imidazo[1,2-b]pyridazin-6-yl)nicotinonitrile]
0.5 to 100 | Cc1nc2ccc(-c3ccnc(N)c3)nc2n1-c1cc(F)c(N2CCOCC2)c(F)c1 [Compound 172, 4-(3-(3,5-difluoro-4-morpholinophenyl)-2-methyl-3H-imidazo[4,5-b]pyridin-5-yl)pyridin-2-amine]
501 to 10000 | c1cc(-c2cn3cnnc3cn2)ccn1 [Compound 68, 6-(pyridin-4-yl)-[1,2,4]triazolo[4,3-a]pyrazine]
0.5 to 100 | Cc1nc2ccc(-c3ccnc(N)c3)nc2n1-c1cccc(CN2C[C@H](C)O[C@@H](C)C2)c1 [Compound 156, 4-(3-(3-(((2S,6S)-2,6-dimethylmorpholino)methyl)phenyl)-2-methyl-3H-imidazo[4,5-b]pyridin-5-yl)pyridin-2-amine]
101 to 500 | Cc1nc2ccc(-c3cnn(C)c3)nc2n1-c1ccc2c(c1)OCO2 [Compound 31, 3-(benzo[d][1,3]dioxol-5-yl)-2-methyl-5-(1-methyl-1H-pyrazol-4-yl)-3H-imidazo[4,5-b]pyridine]
0.5 to 100 | COC(=O)c1ccc(-n2cnc3c(F)cc(-c4ccncc4)cc32)cc1 [Compound 16, methyl 4-(4-fluoro-6-(pyridin-4-yl)-1H-benzo[d]imidazol-1-yl)benzoate]
0.5 to 100 | Cc1cc(-c2ccc3nc(C)n(-c4ccc5[nH]cnc5c4)c3n2)ccn1 [Compound 50, 3-(1H-benzo[d]imidazol-5-yl)-2-methyl-5-(2-methylpyridin-4-yl)-3H-imidazo[4,5-b]pyridine]
0.5 to 100 | Cc1nc2ccc(-c3ccnc(N)c3)nc2n1-c1ccc(N2CCOCC2)c(Cl)c1 [Compound 168, 4-(3-(3-chloro-4-morpholinophenyl)-2-methyl-3H-imidazo[4,5-b]pyridin-5-yl)pyridin-2-amine]
0.5 to 100 | Cc1nc2ccc(-c3ccnc(N)c3)nc2n1-c1ccc(=O)n(C)c1 [Compound 48, 5-(5-(2-aminopyridin-4-yl)-2-methyl-3H-imidazo[4,5-b]pyridin-3-yl)-1-methylpyridin-2(1H)-one]
0.5 to 100 | Cc1nc2ccc(-c3ccnc(N)c3)nc2n1-c1ccc2c(c1)CCN2C1CCOCC1 [Compound 174, 4-(2-methyl-3-(1-(tetrahydro-2H-pyran-4-yl)indolin-5-yl)-3H-imidazo[4,5-b]pyridin-5-yl)pyridin-2-amine]
501 to 10000 | Cc1nc2ccc(-c3ccnc(N)c3)nc2n1-c1ccc(CN2CCOCC2)nc1 [Compound 149, 4-(2-methyl-3-(6-(morpholinomethyl)pyridin-3-yl)-3H-imidazo[4,5-b]pyridin-5-yl)pyridin-2-amine]
0.5 to 100 | Cc1nc2ccc(-c3ccncc3)nc2n1-c1ccc(CN2CCC3(COC3)C2)cc1 [Compound 121, 6-(4-(2-methyl-5-(pyridin-4-yl)-3H-imidazo[4,5-b]pyridin-3-yl)benzyl)-2-oxa-6-azaspiro[3.4]octane]
0.5 to 100 | c1n[nH]cc1-c1ccc2ncc(-c3ccc4c(c3)OCO4)n2n1 [Compound 27, 3-(benzo[d][1,3]dioxol-5-yl)-6-(1H-pyrazol-4-yl)imidazo[1,2-b]pyridazine]
101 to 500 | Cc1cc(-c2ccc3ncc(-c4ccc(CN5CCC(C)(C)CC5)cc4)n3n2)ccn1 [Compound 93, 3-(4-((4,4-dimethylpiperidin-1-yl)methyl)phenyl)-6-(2-methylpyridin-4-yl)imidazo[1,2-b]pyridazine]

Kd [nM] | SMILES
0.5 to 100 | Cc1nc2ccc(-c3ccnc4[nH]ccc34)nc2n1-c1cccc(CN2CCOCC2)c1 [Compound 178, 4-(3-(2-methyl-5-(1H-pyrrolo[2,3-b]pyridin-4-yl)-3H-imidazo[4,5-b]pyridin-3-yl)benzyl)morpholine]
0.5 to 100 | c1cc(-c2ccc3ncc(-c4ccc5c(c4)OCO5)n3n2)ccn1 [Compound 23, 3-(benzo[d][1,3]dioxol-5-yl)-6-(pyridin-4-yl)imidazo[1,2-b]pyridazine]
0.5 to 100 | c1cc(-c2ccc3ncc(-c4ccc(N5CCNCC5)nc4)n3n2)ccn1 [Compound 76, 3-(6-(piperazin-1-yl)pyridin-3-yl)-6-(pyridin-4-yl)imidazo[1,2-b]pyridazine]
501 to 10000 | FC1(F)CCCN(Cc2ccc(-c3cnc4ccc(-c5ccncc5)nn34)cc2)C1 [Compound 95]
0.5 to 100 | Cc1nc2cc(-n3c(C)nc4ccc(-c5ccncc5)nc43)ccc2[nH]1 [Compound 138, 2-methyl-3-(2-methyl-1H-benzo[d]imidazol-5-yl)-5-(pyridin-4-yl)-3H-imidazo[4,5-b]pyridine]
0.5 to 100 | Cc1nc2ccc(-c3ccnc4[nH]ccc34)nc2n1-c1ccc(CN2CCOCC2)cc1 [Compound 179, 4-(4-(2-methyl-5-(1H-pyrrolo[2,3-b]pyridin-4-yl)-3H-imidazo[4,5-b]pyridin-3-yl)benzyl)morpholine]
101 to 500 | FC1(F)CCN(Cc2ccc(-c3cnc4ccc(-c5ccncc5)nn34)cc2)C1 [Compound 98, 3-(4-((3,3-difluoropyrrolidin-1-yl)methyl)phenyl)-6-(pyridin-4-yl)imidazo[1,2-b]pyridazine]
0.5 to 100 | COC(=O)c1ccc(-n2cnc3ccc(-c4ccncc4)nc32)cc1 [Compound 9, methyl 4-(5-(pyridin-4-yl)-3H-imidazo[4,5-b]pyridin-3-yl)benzoate]
101 to 500 | NC(=O)c1ccnc(-n2cnc3ccc(-c4ccncc4)c(F)c32)c1 [Compound 12, 2-(7-fluoro-6-(pyridin-4-yl)-1H-benzo[d]imidazol-1-yl)isonicotinamide]
501 to 10000 | Fc1c(-c2ccncc2)ccc2nc(C3CC3)n(-c3ccc4c(c3)OCO4)c12 [Compound 21, 1-(benzo[d][1,3]dioxol-5-yl)-2-cyclopropyl-7-fluoro-6-(pyridin-4-yl)-1H-benzo[d]imidazole]
0.5 to 100 | Cc1nc2ccc(-c3ccnc(N)c3)nc2n1-c1ccc(F)c(N2CCOCC2)c1 [Compound 173, 4-(3-(4-fluoro-3-morpholinophenyl)-2-methyl-3H-imidazo[4,5-b]pyridin-5-yl)pyridin-2-amine]
0.5 to 100 | Cc1nc2ccc(-c3ccnc(N)c3)nc2n1-c1ccc(CN2CCCCC2)cc1 [Compound 159, 4-(2-methyl-3-(4-(piperidin-1-ylmethyl)phenyl)-3H-imidazo[4,5-b]pyridin-5-yl)pyridin-2-amine]
101 to 500 | Cc1nc2ccc(-c3ccncc3)nc2n1-c1ccc(C(=O)N2CCN(C3COC3)CC2)cc1 [Compound 57, (4-(2-methyl-5-(pyridin-4-yl)-3H-imidazo[4,5-b]pyridin-3-yl)phenyl)(4-(oxetan-3-yl)piperazin-1-yl)methanone]
0.5 to 100 | Cc1nc2ccc(-c3ccncc3)c(F)c2n1-c1ccc2c(c1)OCO2 [Compound 19, 1-(benzo[d][1,3]dioxol-5-yl)-7-fluoro-2-methyl-6-(pyridin-4-yl)-1H-benzo[d]imidazole]
0.5 to 100 | CC(=O)N1CCN(Cc2ccc(-n3c(C)nc4ccc(-c5ccncc5)nc43)cc2)CC1 [Compound 116, 1-(4-(4-(2-methyl-5-(pyridin-4-yl)-3H-imidazo[4,5-b]pyridin-3-yl)benzyl)piperazin-1-yl)ethan-1-one]
101 to 500 | Cc1nc2ccc(-c3ccncc3)nc2n1-c1ccc(C(=O)NC2CC(F)(F)C2)cc1 [Compound 58, N-(3,3-difluorocyclobutyl)-4-(2-methyl-5-(pyridin-4-yl)-3H-imidazo[4,5-b]pyridin-3-yl)benzamide]
101 to 500 | Cc1nc2cc(-n3c(C)nc4ccc(-c5cn[nH]c5)nc43)ccc2o1 [Compound 36, 2-methyl-5-(2-methyl-5-(1H-pyrazol-4-yl)-3H-imidazo[4,5-b]pyridin-3-yl)benzo oxazole]
0.5 to 100 | Cc1nc2ccc(-c3ccncc3)nc2n1-c1ccc(CN2CC3CCC(C2)O3)cc1 [Compound 122, 3-(4-(2-methyl-5-(pyridin-4-yl)-3H-imidazo[4,5-b]pyridin-3-yl)benzyl)-8-oxa-3-azabicyclo[3.2.1]octane]
501 to 10000 | CN1CCN(c2cnc3ccc(-c4ccncc4)nn23)CC1 [Compound 86, 3-(4-methylpiperazin-1-yl)-6-(pyridin-4-yl)imidazo[1,2-b]pyridazine]
0.5 to 100 | Cc1nc2ccc(-c3ccnc(Cl)c3)nc2n1-c1ccc(CN2CCOCC2)cc1 [Compound 176, 4-(4-(5-(2-chloropyridin-4-yl)-2-methyl-3H-imidazo[4,5-b]pyridin-3-yl)benzyl)morpholine]
